Positions of bridges follow the written chain, without caps; N, C: chain ends. Residues, ends and D or L forms follow the SMILES beside them.

Data set [1] concerns the target T1, Human VEGF165 (Homo sapiens, UniProt P15692).
T1 construct: purchased Biosource
T1 sequence (P15692 27-191 isoform P15692-4): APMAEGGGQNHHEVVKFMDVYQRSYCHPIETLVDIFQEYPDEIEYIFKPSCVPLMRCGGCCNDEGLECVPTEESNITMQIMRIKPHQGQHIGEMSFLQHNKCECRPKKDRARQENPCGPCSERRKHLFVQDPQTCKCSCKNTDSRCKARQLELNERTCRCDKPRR
The data set can be described thus: BIAcore surface plasmon resonance binding analysis of VEGF binding peptides. The method, then:
FIG. 3 provides results of a BIACORE binding analysis of VEGF binding peptides. Binding curves were obtained as described in the Examples. […]
In this Example, experiments conducted to assess the affinities of the peptides for VEGF are described. Affinities of the peptides for VEGF were measured using a BIAcore™-3000 surface plasmon resonance system (Biacore). A CM5 sensor chip was conditioned with 50 mM NaOH, 0.1% HCl, 0.1% SDS, and 0.08% H3PO4, and activated for covalent coupling of […] using N-ethyl-N′-(3-dimethylaminopropyl)-carbodiimide hydrochloride (EDC) and N-hydroxysuccinimide (NHS) according to the supplier's instructions (Biacore). Human VEGF165 (Biosource) was diluted to 5 μg/ml in 20 mM sodium acetate, pH 4.8 and injected at a flow rate of 2 μl/min to achieve approximately 1000 to 6000 response units (RU) of coupled protein. TNF[…] (human TNF[…], Biosource, Int., Camarillo, Calif.) was similarly coupled to the CM5 sensor chip to approximately 850 to 3500 RU in the reference lane. A solution of 1 M ethanolamine was injected as a blocking agent. In some experiments, an additional solution of EDC and NHS were injected to improve baseline stability and a solution of 1 M ethanolamine injected as a blocking agent. The reference lane is activated with EDC and NHS and blocked with ethanolamine.
Peptides were synthesized using standard FMOC chemistry, purified by reverse phase HPLC to >95% purity (SynPep), and stored at 10 mg/mL in DMSO. For kinetic measurements, twofold serial diluted peptides in HBS-EP buffer, 0.01 M HEPES pH 7.4, 0.15 M NaCl, 3 mM EDTA, 0.005% Surfactant P20 (Biacore), were injected at 25° C. at a flow rate of 20 μL/min. Two-fold serial diluted DMSO samples and buffer samples were also injected for background subtraction. Kinetic parameters were calculated using BIAevaluation 3.1 software.

For data set [2], the system named is human umbilical vein endothelial cells (HUVEC). The data set can be described thus: In vitro HUVEC proliferation assay (MTS) of hVEGF inhibitory peptides. The following applies: 10 ng/ml VEGF, 48 hrs. The class given is cell-based. The method, then:
In this Example, experiments conducted to determine the anti-proliferative activity of anti-VEG peptides are described. The antiproliferative activity of VEGF inhibitory peptides was determined using human umbilical vein endothelial cells (HUVEC) as follows. An early passage (less than six) of HUVEC was seeded in 96-well plates at 5000 cells per well and starved for 18 hrs in 200 μl EBM medium (Cambrex) without growth factors and supplemented with 0.5% FBS, at 37° C. with 5% CO2. The medium was replaced with 180 μl of growth medium containing EBM medium with 5% fetal bovine serum and 1% DMSO. Then, 20 μl of VEGF preincubated for one hour with varying peptide concentrations (the final DMSO concentration of all the wells was 1%) were added to the wells for a final VEGF concentration of 10 ng/ml. Human VEGF antibody (R & D Systems) was used as a positive control. Cells with 0.31 to 20 ng/ml concentrations of VEGF alone in the growth medium were used to construct a standard growth curve. The cells were further incubated for 48 hrs, and the cell proliferation was measured using an MTS assay (CellTiter 96 Aqueous One Solution Cell Proliferation Assay Kit; Promega). Then, 40 μl of the MTS tetrazolium solution was added to each well and after 3 and 4 hours incubation, the plates were read at 490 nm. The absorption of media alone was subtracted from all data points.

The nature of data set [3]: Repeat insult patch test (RIPT) on human skin. It counts as in vivo. The following applies: 0.5% (w/v) in deionized water/butylene glycol; approximately 0.2 mL; 200 human volunteers. The method, then: In this Example, experiments conducted to determine the patch test result for anti-VEGF peptides are described. Samples of the aVEGF peptide CK37281 dosed at 0.5% (w/v) were formulated in a base formulation containing deionized water/butylene glycol. Approximately 0.2 mL of the formulation was applied to 200 human volunteers in a repeated insult patch test according to procedures designed by Clinical Research Laboratories, Inc. (Piscataway, N.J.).

For data set [4], the target named is T1, Human VEGF165. The data set can be described thus: BIAcore binding analysis of BBI-VEGF constructs. The following applies: trypsin and chymotrypsin coupled in remaining lanes. How it is done: In this Example, experiments conducted to determine the binding affinity of constructs produced as indicated in Example 9 are described. Affinities of BBI-VEGF constructs for VEGF were measured using BLAcore-3000 surface plasmon resonance (Biacore). A CM5 sensor chip was conditioned with 50 mM NaOH and activated for covalent coupling of VEGF using N-ethyl-N′-3-dimethylaminopropyl)-carbodiimide hydrochloride (EDC) and N-hydroxysuccinimide (NHS) according to the supplier's instructions (Biacore). VEGF (human VEGF165, Biosource) was diluated to 5 μg/mL in 20 mM sodium acetate, pH 4.8, and injected at a flow rate of 2 μL/min to achieve approximately 1000 to 6000 response units (RU) of coupled protein. Trypsin and chymotrypsin were similarly coupled to the CM5 sensor chip to approximately 850 to 3500 RU in remaining lanes. A solution of 1 M ethanolamine was injected as a blocking agent.

Setting [5] is: two state reaction model with conformation change.

At Human VEGF165 [1] (setting [5]), `CC(C)C[C@@H]1NC(=O)[C@H](CC(N)=O)NC(=O)[C@H](Cc2ccc(O)cc2)NC(=O)[C@@H](NC(=O)[C@H](C)N)CSSC[C@@H](C(=O)NCC(=O)NCC(=O)NCC(=O)O)NC(=O)[C@H]([C@@H](C)O)NC(=O)[C@H](Cc2c[nH]c3ccccc23)NC(=O)CNC(=O)[C@H](Cc2ccc(O)cc2)NC1=O` [CK37281] (H-ACYNLYGWTCGGG-OH; disulfide 2-10 (inferred); N-terminus and C-terminus assumed) registered a ka2 of 0.0015 s⁻¹ and a kd1 of 0.0122 s⁻¹. Moreover, in data set [2], the IC50 antiproliferative activity entry is “in the micromolar range”. Besides, the “dermal irritation or sensitization” value in data set [3] is listed as “no dermal irritation or sensitization”.

For the molecule `CC(C)C[C@@H]1NC(=O)[C@H](CC(N)=O)NC(=O)[C@@H](NC(=O)[C@H](C)N)CSSC[C@@H](C(=O)NCC(=O)NCC(=O)NCC(=O)O)NC(=O)[C@H](Cc2c[nH]c3ccccc23)NC(=O)[C@H](Cc2ccccc2)NC(=O)[C@H](Cc2c[nH]cn2)NC(=O)[C@@H]2CCCN2C(=O)[C@H](Cc2c[nH]c3ccccc23)NC1=O` [CK37283, NLWPHFW], on Human VEGF165 [1] (setting [5]), the ka2 was found to be 0.00634 s⁻¹ and the kd1 came to 0.318 s⁻¹. In data set [2], the IC50 antiproliferative activity entry is given as “in the micromolar range”.

`CC[C@H](C)[C@@H]1NC(=O)[C@H](CC(=O)O)NC(=O)[C@@H](NC(=O)[C@H](CC(N)=O)NC(=O)[C@@H]2CCCN2C(=O)[C@H](CCC(=O)O)NC(=O)[C@@H](N)C(C)C)CSSC[C@@H](C(=O)N[C@@H](Cc2ccccc2)C(=O)N[C@@H](CCC(=O)O)C(=O)N[C@@H](CCCNC(=N)N)C(=O)N[C@@H](CC(C)C)C(N)=O)NC(=O)[C@H](CCC(=O)O)NC(=O)[C@H](Cc2c[nH]c3ccccc23)NC(=O)[C@H](CCC(=O)O)NC(=O)[C@H](Cc2c[nH]c3ccccc23)NC(=O)[C@H](CCSC)NC(=O)[C@H](C(C)C)NC(=O)[C@H](Cc2c[nH]cn2)NC1=O` [v114, reference compound] (H-VEPNCDIHVMWEWECFERL-NH2; disulfide 5-15; N-terminus and C-terminus assumed) came in with a kd1 at Human VEGF165 [1] (1:1 Langmuir binding fit, 1000 RU VEGF, 850 RU TNF) of 0.167 s⁻¹.

B1: BBI-VEGF1: Bowman-Birk inhibitor fusion with one binding loop replaced by anti-VEGF peptide (protein)
chain: DDESSKPCCDQCACYNLYGWTCRCSDMRLNSCHSACKSCICALSYPAQCFCVDITDFCYEPCKPSEDDKEN
modifications: synthetic BBI-VEGF1 fusion protein
For the molecule B1, the results for the “binding to VEGF” value in the data set with Human VEGF165 [4] and with Human VEGF165 [4] (listed as BBI-VEGF) were “binds specifically to VEGF” and “Selective binding affinity to VEGF”, respectively.

The values above are taken from patent US7524816B2, “Peptides and supported peptides for treating skin diseases” (Genencor International, Inc., priority 2003, dated 2009).
